Measurements reported in patent publication US20050143392A1, “Chrysogenazine obtained from fungus Penicillium chrysogenum having antibacterial activity” (Council of Scientific & Industrial Research, priority 2003, published 2005).

Tested on: Vibrio cholerae MCM B-322
Experiment: Antibacterial activity, simple disc diffusion (agar diffusion) technique
Method: In addition, standard discs of penicillin (10 units/disc), amphicillin (10 mcg/disc) and streptomycin (10 mcg/disc) were used to compare the sensitivity.
Antibacterial activity was determined using a Gram negative bacterial strain, Vibrio cholerae, in a agar diffusion assay, essentially as described by Chabbert, (1963) and Rinehart et.al.,(1981). […] Following an appropriate incubation interval, microbial growth inhibition was visualized and quantified by measuring the clear zone around each disc (Plate 1.). Comparison of this was made with the standard antibiotics (penicillin, amphicillin, and streptomycin).

Q: With `CC(C)=CCc1[nH]c2ccccc2c1C=C1NC(=O)C(C)NC1=O` (centres unmarked) [chrysogenazine, 3,1′-didehydro-3[2″(3′″,3′″-dimethyl-prop-2-enyl)-3″-indolylmethylene]-6-methylpiperazine-2,5-dione] as the molecule, how does the “antibacterial activity against human pathogen Vibrio cholerae (in words)” value (disc diffusion, 5-30 mcg/disc) read?
A: active

Q: With `[H]/N=C(/N)N[C@H]1[C@H](O)[C@@H](O)[C@H](O[C@@H]2O[C@@H](C)[C@](O)(C=O)[C@H]2O[C@@H]2O[C@@H](CO)[C@H](O)[C@@H](O)[C@@H]2NC)[C@@H](N/C(N)=N\[H])[C@@H]1O` [streptomycin] as the molecule, how does the zone of inhibition at 10 µg/disc (Vibrio cholerae, MCMB322) read?
A: 4 to 5 mm
